The record followed here is patent US20070219203A1, “Arylalkylamino-substituted quinazoline analogues” (Neurogen Corporation, priority 2004, published 2007).

For the first assay, the target named is T1, human capsaicin receptor (Homo sapiens, UniProt Q8NER1).
T1 construct: expressed in transfected cells
T1 sequence (Q8NER1 whole entry): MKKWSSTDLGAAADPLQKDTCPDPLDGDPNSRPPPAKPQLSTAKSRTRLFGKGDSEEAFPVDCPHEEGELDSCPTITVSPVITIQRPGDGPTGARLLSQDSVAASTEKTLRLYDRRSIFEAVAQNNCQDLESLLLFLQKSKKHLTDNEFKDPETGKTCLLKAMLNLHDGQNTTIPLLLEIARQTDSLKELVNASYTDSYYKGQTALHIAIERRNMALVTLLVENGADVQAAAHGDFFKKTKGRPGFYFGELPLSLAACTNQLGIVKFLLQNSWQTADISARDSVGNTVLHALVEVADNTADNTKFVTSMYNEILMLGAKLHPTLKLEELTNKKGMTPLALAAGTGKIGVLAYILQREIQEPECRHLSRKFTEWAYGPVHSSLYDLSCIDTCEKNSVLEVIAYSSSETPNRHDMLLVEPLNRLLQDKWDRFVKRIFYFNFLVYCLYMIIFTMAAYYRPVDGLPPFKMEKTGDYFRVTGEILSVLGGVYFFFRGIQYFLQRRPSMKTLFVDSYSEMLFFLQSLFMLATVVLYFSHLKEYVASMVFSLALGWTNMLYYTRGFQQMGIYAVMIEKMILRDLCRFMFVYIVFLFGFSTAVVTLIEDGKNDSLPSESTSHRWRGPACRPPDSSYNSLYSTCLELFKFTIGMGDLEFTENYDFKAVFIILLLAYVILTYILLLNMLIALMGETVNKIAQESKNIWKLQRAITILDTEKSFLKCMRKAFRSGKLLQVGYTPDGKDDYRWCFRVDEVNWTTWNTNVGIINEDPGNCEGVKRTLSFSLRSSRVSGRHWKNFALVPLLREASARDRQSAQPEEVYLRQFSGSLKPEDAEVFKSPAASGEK
The assay is described as follows: Calcium mobilization assay, antagonist activity (Example 6). It counts as cell-based. Particulars: Table I; 50% decrease in fluorescence response of cells expressing human capsaicin receptor exposed to capsaicin. How it is done:
A cDNA encoding full length human capsaicin receptor (SEQ ID NO:1, 2 or 3 of U.S. Pat. No. 6,482,611) is subcloned in the plasmid pBK-CMV (Stratagene, La Jolla, Calif.) for recombinant expression in mammalian cells.
Human embryonic kidney (HEK293) cells are transfected with the pBK-CMV expression construct encoding the full length human capsaicin receptor using standard methods. The transfected cells are selected for two weeks in media containing G418 (400 μg/ml) to obtain a pool of stably transfected cells. Independent clones are isolated from this pool by limiting dilution to obtain clonal stable cell lines for use in subsequent experiments.
Cells transfected with expression plasmids (as described in Example 4) and thereby expressing human capsaicin receptor are seeded and grown to 70-90% confluency in FALCON black-walled, clear-bottomed 96-well plates (#3904, BECTON-DICKINSON, Franklin Lakes, N.J.). The culture medium is emptied from the 96 well plates and […] calcium sensitive dye (Molecular Probes, Eugene, Oreg.) is added to each well (dye solution: 1 mg […], 440 μL DMSO and 440 μl 20% pluronic acid in DMSO, diluted 1:250 in Krebs-Ringer HEPES (KRH) buffer (25 mM HEPES, 5 mM KCl, 0.96 mM NaH2PO4, 1 mM MgSO4, 2 mM CaCl2, 5 mM glucose, 1 mM probenecid, pH 7.4), 50 μl diluted solution per well). Plates are covered with aluminum foil and incubated at 37° C. for 1-2 hours in an environment containing 5% CO2. After the incubation, the dye is emptied from the plates, and the cells are washed once with KRH buffer, and resuspended in KRH buffer.
To measure the ability of a test compound to agonize or antagonize a calcium mobilization response in cells expressing capsaicin receptors to capsaicin or other vanilloid agonist, the EC50 of the agonist capsaicin is first determined. An additional 20 μl of KRH buffer and 1 μl DMSO is added to each well of cells, prepared as described above. 100 μl capsaicin in KRH buffer is automatically transferred by the FLIPR instrument to each well. Capsaicin-induced calcium mobilization is monitored using either FLUOROSKAN ASCENT (Labsystems; Franklin, Mass.) or FLIPR (fluorometric imaging plate reader system; Molecular Devices, Sunnyvale, Calif.) instruments. Data obtained between 30 and 60 seconds after agonist application are used to generate an 8-point concentration response curve, with final capsaicin concentrations of 1 nM to 3 μM. KALEIDAGRAPH software (Synergy Software, Reading, Pa.) is used to fit the data to the equation: y=a*(1/(1+(b/x)^c)) to determine the 50% excitatory concentration (EC50) for the response. In this equation, y is the maximum fluorescence signal, x is the concentration of the agonist or antagonist (in this case, capsaicin), a is the Emax, b corresponds to the EC50 value and c is the Hill coefficient. Determination of Agonist Activity
Test compounds are dissolved in DMSO, diluted in 20 μl KRH buffer so that the final concentration of test compounds in the assay well is between 1 μM and 5 μM, and added to cells prepared as described above. The 96 well plates containing prepared cells and test compounds are incubated in the dark, at room temperature for 0.5 to 6 hours. It is important that the incubation not continue beyond 6 hours. Just prior to determining the fluorescence response, 100 μl capsaicin in KRH buffer at twice the EC50 concentration determined as described above is automatically added by the FLIPR instrument to each well of the 96 well plate for a final sample volume of 200 μl and a final capsaicin concentration equal to the EC50. The final concentration of test compounds in the assay wells is between 1 μM and 5 μM. […] The concentration of antagonist required to provide a 50% decrease, relative to the response observed in the presence of capsaicin and without antagonist, is the IC50 for the antagonist, and is preferably below 1 micromolar, 100 nanomolar, 10 nanomolar or 1 nanomolar.
(Calcium assays in cells follow changes in intracellular calcium, usually with a dye or a luminescent sensor.)
With `CC(C)COCc1nc(NCCc2cccc(Cl)c2)c2ccc(-c3ncccc3Cl)nc2n1` [Compound 48, N-[2-(3-chlorophenyl)ethyl]-7-(3-chloropyridin-2-yl)-2-(isobutoxymethyl)pyrido[2,3-d]pyrimidin-4-amine], the IC50 (commonly the concentration that inhibits the measured activity by half) is at most 1000 nM.

`CC(C)COCc1nc(NCCc2ccc(Cl)cc2)c2ccc(-c3ncccc3Cl)nc2n1` [Compound 49, N-[2-(4-chlorophenyl)ethyl]-7-(3-chloropyridin-2-yl)-2-(isobutoxymethyl)pyrido[2,3-d]pyrimidin-4-amine]: the 50% inhibitory concentration (IC50) was at most 1000 nM.

With `CCOCc1nc(NCCc2cccc(OC)c2)c2ccc(-c3ncccc3Cl)nc2n1` [Compound 57, 7-(3-chloropyridin-2-yl)-2-(ethoxymethyl)-N-[2-(3-methoxyphenyl)ethyl]pyrido[2,3-d]pyrimidin-4-amine], the IC50 is at most 1000 nM.

`CC(C)COCc1nc(NCCc2cccc(F)c2)c2ccc(-c3ncccc3Cl)nc2n1` [Compound 45]: the IC50 is at most 1000 nM.

With `Fc1cccc(F)c1CCNc1ncnc2cc(-c3ncccc3C(F)(F)F)ccc12` [Compound 26, N-[2-(2,6-difluorophenyl)ethYl]-7-[3-(trifluoromethyl)pyridin-2-yl]quinazolin-4-amine], the half-inhibitory concentration (IC50) is at most 1000 nM.

Turning to `FC(F)(F)c1cccnc1-c1ccc2c(NCCc3ccc(Cl)c(Cl)c3)ncnc2c1` [Compound 20, N-[2-(3,4-dichlorophenyl)ethyl]-7-[3-(trifluoromethyl)pyridin-2-yl]quinazolin-4-anmne], the concentration for half-maximal inhibition (IC50) is at most 1000 nM.

As to `Fc1cccc(CCNc2ncnc3cc(-c4ncccc4C(F)(F)F)ccc23)c1` [Compound 7, N-[2-(3-fluorophenyl)ethyl]-7-[3-(trifluoromethyl)pyridin-2-yl]quinazolin-4-amine], the IC50 was at most 1000 nM.

Turning to `FC(F)(F)c1cccnc1-c1ccc2c(NCCc3ccc(Cl)cc3)ncnc2c1` [Compound 14, N-[2-(4-chlorophenyl)ethyl]-7-[3-(trifluoromethyl)pyridin-2-yl]quinazolin-4-amine], the IC50 was at most 1000 nM.

With `C[C@@H]1CN(Cc2nc(NCCc3ccccc3Cl)c3ncc(-c4ncccc4Cl)cc3n2)C[C@H](C)O1` [Compound 29, N-[2-(2-chlorophenyl)ethyl]-7-(3-chloropyridin-2-yl)-2-{[(2R,6S)-2,6-dimethylmorpholin-4-yl]methyl}pyrido[3,2-d]pyrimidin-4-amine], the IC50 was at most 1000 nM.

Turning to `CC(C)COCc1nc(NC2Cc3ccccc3C2)c2ccc(-c3ncccc3Cl)nc2n1` [Compound 61, 7-(3-chloropyridin-2-yl)-N-(2,3-dihydro-1H-inden-2-yl)-2-(isobutoxymethyl)pyrido[2,3-d]pyrimidin-4-amine], the IC50 was at most 1000 nM.

Take `FC(F)(F)c1cccnc1-c1ccc2c(NCCc3c(Cl)cccc3Cl)ncnc2c1` [Compound 19, N-[2-(2,6-dichlorophenyl)ethyl]-7-[3-(trifluoromethyl)pyridin-2-yl]quinazolin-4-amine]: the IC50 was at most 1000 nM.

On to `COc1cccc(CCNc2ncnc3cc(-c4ncccc4C(F)(F)F)ccc23)c1` [Compound 10, N-[2-(3-methoxyphenyl)ethyl]7-[3-(trifluoromethyl)pyridin-2-yl]quinazolin-4-amine], for which the IC50 is at most 1000 nM.

As to `Fc1cc(F)cc(CCNc2ncnc3cc(-c4ncccc4C(F)(F)F)ccc23)c1` [Compound 28, N-[2-(3,5-difluorophenyl)ethyl]-7-[3-(trifluoromethyl)pyridin-2-yl]quinazolin-4-amine], the concentration for half-maximal inhibition (IC50) was at most 1000 nM.

For `CC(CNc1ncnc2cc(-c3ncccc3C(F)(F)F)ccc12)c1ccccc1` (centres unmarked) [Compound 18, N-(2-phenylpropyl)-7-[3-(trifluoromethyl)pyridin-2-yl]quinazolin-4-amine], the half-maximal inhibitory concentration (IC50) is at most 1000 nM.

Staying with this assay, now noted: Table II; 50% decrease in fluorescence response of cells expressing human capsaicin receptor exposed to capsaicin.
For the compound `CCCCCCN(CCCCCC)Cc1nc(NCCc2ccccc2Cl)c2ccc(-c3ncccc3C(F)(F)F)cc2n1` [Compound 175, [2-(2-Chloro-phenyl)-ethyl]-[2-dihexylaminomethyl-7-(3-trifluoromethyl-pyridin-2-yl)-quinazolin-4-yl]-amine], the IC50 is at most 1000 nM.

For the compound `CCCCCN(CCCCC)Cc1nc(NCCc2ccccc2C)c2ccc(-c3ncccc3C(F)(F)F)cc2n1` [Compound 171, [2-Dipentylaminomethyl-7-(3-trifluoromethyl-pyridin-2-yl)-quinazolin-4-yl]-(2-o-tolyl-ethyl)-amine], the IC50 is at most 1000 nM.

For the compound `FC(F)(F)c1cccnc1-c1ccc2c(NC3Cc4ccccc4C3)ncnc2c1` [Compound 76, Indan-2-yl-[7-(3-trifluoromethyl-pyridin-2-yl)-quinazolin-4-yl]-amine], the concentration for half-maximal inhibition (IC50) was at most 1000 nM.

With `CCCCCCN(CCCCCC)Cc1nc(NCCc2ccccc2C)c2ccc(-c3ncccc3C(F)(F)F)cc2n1` [Compound 174, [2-Dihexylaminomethyl-7-(3-trifluoromethyl-pyridin-2-yl)-quinazolin-4-yl]-(2-o-tolyl-ethyl)-amine], the IC50 is at most 1000 nM.

For the compound `CCCC(CNc1ncnc2cc(-c3ncccc3C(F)(F)F)ccc12)c1ccccc1` (centres unmarked) [Compound 69, (2-Phenyl-pentyl)-[7-(3-trifluoromethyl-pyridin-2-yl)-quinazolin-4-yl]-amine], the concentration for half-maximal inhibition (IC50) was at most 1000 nM.

Turning to `CCCCCC(CNc1ncnc2cc(-c3ncccc3C(F)(F)F)ccc12)c1ccccc1` (centres unmarked) [Compound 73, (2-Phenyl-heptyl)-[7-(3-trifluoromethyl-pyridin-2-yl)-quinazolin-4-yl]-amine], the 50% inhibitory concentration (IC50) was at most 1000 nM.

Consider `Cc1ccccc1CCNc1nc(CN2CCC3(CC2)OCCO3)nc2cc(-c3ncccc3C(F)(F)F)ccc12` [Compound 110, [2-(1,4-Dioxa-8-aza-spiro[4.5]dec-8-ylmethyl)-7-(3-trifluoromethyl-pyridin-2-yl)-quinazolin-4-yl]-(2-o-tolyl-ethyl)-amine], for which the 50% inhibitory concentration (IC50) was at most 1000 nM.

Turning to `CCCCN(CCCC)Cc1nc(NCCc2ccccc2)c2ccc(-c3ncccc3C(F)(F)F)cc2n1` [Compound 145, [2-Dibutylaminomethyl-7-(3-trifluoromethyl-pyridin-2-yl)-quinazolin-4-yl]-phenethyl-amine], the 50% inhibitory concentration (IC50) is at most 1000 nM.

Regarding `Cc1ccc(CCNc2ncnc3cc(-c4ncccc4C(F)(F)F)ccc23)cc1` [Compound 64, (2-p-Tolyl-ethyl)-[7-(3-trifluoromethyl-pyridin-2-yl)-quinazolin-4-yl]-amine], the concentration for half-maximal inhibition (IC50) is at most 1000 nM.

As to `CC1CCN(Cc2nc(NCCc3ccccc3)c3ccc(-c4ncccc4C(F)(F)F)cc3n2)CC(C)(C)C1` (centres unmarked) [Compound 106, Phenethyl-[7-(3-trifluoromethyl-pyridin-2-yl)-2-(3,3,5-trimethyl-azepan-1-ylmethyl)-quinazolin-4-yl]-amine], the half-maximal inhibitory concentration (IC50) is at most 1000 nM.

`FC(F)(F)c1cccnc1-c1ccc2c(NCCc3ccccc3)nc(CN3CCSCC3)nc2c1` [Compound 97, Phenethyl-[2-thiomorpholin-4-ylmethyl-7-(3-trifluoromethyl-pyridin-2-yl)-quinazolin-4-yl]-amine]: the IC50 was at most 1000 nM.

As for `FC(F)(F)c1cccnc1-c1ccc2c(NCCc3ccccc3)nc(CN3CCCCCCC3)nc2c1` [Compound 103, [2-Azocan-1-ylmethyl-7-(3-trifluoromethyl-pyridin-2-yl)-quinazolin-4-yl]-phenethyl-amine], the half-maximal inhibitory concentration (IC50) was at most 1000 nM.
